Calls of active or inactive are those of the source. The rule behind the calls is not given here. Where a SMILES comes first, the peptide text is derived from it. The star is where a group is joined. Cam = NC(=O)C*
Assays:
[1] = Cytotoxicity against human MT4 cells after 5 days by MTT assay; assay type: cell-based
[2] = test system: Human immunodeficiency virus 1; assay: Antiviral activity against R5 tropic HIV1 NL(AD8) in PM1/CCR5 cells assessed as protection from virus-induced cytopathogenicity after 5 days by MTT assay; assay type: functional, organism-based; conditions: Human immunodeficiency virus 1, NL(AD8), PM1/CCR5, 120 h
[3] = test system: Human immunodeficiency virus 1; assay: Antiviral activity against R5 tropic HIV1 JR-CSF in PM1/CCR5 cells assessed as protection from virus-induced cytopathogenicity measuring capsid p24 level after 5 days by ELISA; assay type: functional, cell-based; conditions: Human immunodeficiency virus 1, JRCSF ISOLATE, PM1/CCR5, 120 h
[4] = test system: Human immunodeficiency virus 1; assay: Antiviral activity against X4 tropic HIV1 NL4-3 in MT4 cells assessed as protection from virus-induced cytopathogenicity after 5 days by MTT assay; assay type: functional, organism-based; conditions: Human immunodeficiency virus 1, NL4-3, MT4, 120 h
[5] = Solubility in PBS buffer; assay type: physicochemical
[6] = test system: Human immunodeficiency virus 1; assay: Antiviral activity against X4 tropic HIV1 NL4-3 in MT4 cells assessed as protection from virus-induced cytopathogenicity at 12.5 uM after 5 days by MTT assay; assay type: functional, organism-based
[7] = test system: Human immunodeficiency virus 1; assay: Antiviral activity against R5 tropic HIV1 NL(AD8) in PM1/CCR5 cells assessed as protection from virus-induced cytopathogenicity at 25 uM after 5 days by MTT assay; assay type: functional; conditions: Human immunodeficiency virus 1, NL(AD8), PM1/CCR5, 120 h
[8] = test system: Human immunodeficiency virus 1; assay: Antiviral activity against R5 tropic HIV1 JR-CSF in PM1/CCR5 cells assessed as protection from virus-induced cytopathogenicity measuring capsid p24 level at 50 uM after 5 days by ELISA; assay type: functional; conditions: Human immunodeficiency virus 1, JRCSF ISOLATE, PM1/CCR5, 120 h
[9] = test system: Human immunodeficiency virus 1; assay: Antiviral activity against R5 tropic HIV1 NL(AD8) in PM1/CCR5 cells assessed as protection from virus-induced cytopathogenicity at 50 uM after 5 days by MTT assay; assay type: functional; conditions: Human immunodeficiency virus 1, NL(AD8), PM1/CCR5, 120 h
[10] = test system: Human immunodeficiency virus 1; assay: Antiviral activity against X4 tropic HIV1 NL4-3 in MT4 cells assessed as protection from virus-induced cytopathogenicity at 25 uM after 5 days by MTT assay; assay type: functional, organism-based

SMILES	CC50 at 120 h [1]	EC50 [3]	EC50 [4]	also measured
CC[C@H](C)[C@H](NC(=O)[C@@H](NC(=O)[C@H](CC(N)=O)NC(=O)[C@H](Cc1ccc(O)cc1)NC(=O)[C@H](CC(C)C)NC(=O)[C@H](CO)NC(=O)[C@H](CCCNC(=N)N)NC(=O)[C@H](CC(C)C)NC(=O)[C@H](CCC(=O)O)NC(=O)[C@H](CCC(=O)O)NC(=O)[C@H](CO)NC(=O)CNC(C)=O)[C@@H](C)O)C(=O)N[C@@H](C)C(=O)N[C@H](C(=O)N[C@@H](CC(C)C)C(=O)NCC(=O)N[C@@H](CSCC(=O)N[C@@H](CCCNC(=N)N)C(=O)N[C@@H](CCCNC(=N)N)C(=O)N[C@@H](CCCNC(=N)N)C(=O)N[C@@H](CCCNC(=N)N)C(=O)N[C@@H](CCCNC(=N)N)C(=O)N[C@@H](CCCNC(=N)N)C(=O)N[C@@H](CCCNC(=N)N)C(=O)N[C@@H](CCCNC(=N)N)C(N)=O)C(N)=O)C(C)C	9 µM	7.8 µM	2.3 µM	EC50 [2]: 5.8 µM; solubility [5]: soluble
CC(=O)N[C@@H](CC(=O)O)C(=O)N[C@H](C(=O)NCC(=O)N[C@@H](CC(N)=O)C(=O)N[C@@H](CC(N)=O)C(=O)N[C@@H](CO)C(=O)N[C@@H](CCC(N)=O)C(=O)N[C@H](C(=O)N[C@@H](CO)C(=O)N[C@@H](CCC(N)=O)C(=O)N[C@@H](CC(N)=O)C(=O)N[C@@H](Cc1ccc(O)cc1)C(=O)NCC(=O)N[C@@H](CS)C(N)=O)C(C)C)[C@@H](C)O	–	–	–	solubility [5]: Insoluble
CC[C@H](C)[C@H](NC(=O)[C@H](Cc1cnc[nH]1)NC(=O)[C@H](CCCCN)NC(=O)[C@H](CC(C)C)NC(C)=O)C(=O)N[C@H](C(=O)N[C@@H](Cc1c[nH]c2ccccc12)C(=O)N[C@@H](C)C(=O)N[C@@H](CO)C(=O)N[C@@H](CCCNC(=N)N)C(=O)N[C@@H](CCC(=O)O)C(=O)N[C@@H](CC(C)C)C(=O)N[C@@H](CCC(=O)O)C(=O)N[C@@H](CCCNC(=N)N)C(=O)N[C@@H](Cc1ccccc1)C(=O)N[C@@H](C)C(=O)NCC(=O)N[C@@H](CSCC(N)=O)C(N)=O)C(C)C (Ac-LKHIVWASRELERFAGC(Cam)-NH2)	14 µM	–	–	inhibition [6]: inactive
CC[C@H](C)[C@H](NC(=O)[C@H](CCCCN)NC(=O)[C@H](CC(=O)O)NC(=O)[C@H](CC(C)C)NC(C)=O)C(=O)N[C@@H](CCC(=O)O)C(=O)N[C@@H](CCC(=O)O)C(=O)N[C@@H](CCC(=O)O)C(=O)N[C@@H](CCC(N)=O)C(=O)N[C@@H](CC(N)=O)C(=O)N[C@@H](CCCCN)C(=O)N[C@@H](CO)C(=O)N[C@@H](CCCCN)C(=O)N[C@@H](CCCCN)C(=O)N[C@@H](CCCCN)C(=O)N[C@@H](C)C(=O)NCC(=O)N[C@@H](CSCC(=O)N[C@@H](CCCNC(=N)N)C(=O)N[C@@H](CCCNC(=N)N)C(=O)N[C@@H](CCCNC(=N)N)C(=O)N[C@@H](CCCNC(=N)N)C(=O)N[C@@H](CCCNC(=N)N)C(=O)N[C@@H](CCCNC(=N)N)C(=O)N[C@@H](CCCNC(=N)N)C(=O)N[C@@H](CCCNC(=N)N)C(N)=O)C(N)=O	> 50 µM	23 µM	18 µM	inhibition at 25 µM [7]: 17%
CC[C@H](C)[C@H](NC(=O)[C@H](CCCNC(=N)N)NC(=O)[C@H](CCC(N)=O)NC(=O)[C@H](Cc1cnc[nH]1)NC(=O)[C@@H](NC(=O)[C@H](CO)NC(=O)[C@H](Cc1ccc(O)cc1)NC(=O)[C@H](CC(C)C)NC(=O)[C@@H](NC(=O)[C@H](C)NC(=O)[C@@H](NC(=O)[C@@H](NC(C)=O)[C@@H](C)O)[C@@H](C)CC)C(C)C)C(C)C)C(=O)N[C@@H](CC(=O)O)C(=O)N[C@H](C(=O)N[C@@H](CCCCN)C(=O)NCC(=O)N[C@@H](CSCC(=O)N[C@@H](CCCNC(=N)N)C(=O)N[C@@H](CCCNC(=N)N)C(=O)N[C@@H](CCCNC(=N)N)C(=O)N[C@@H](CCCNC(=N)N)C(=O)N[C@@H](CCCNC(=N)N)C(=O)N[C@@H](CCCNC(=N)N)C(=O)N[C@@H](CCCNC(=N)N)C(=O)N[C@@H](CCCNC(=N)N)C(N)=O)C(N)=O)C(C)C	5.7 µM	0.58 µM	2.1 µM	EC50 [2]: 0.43 µM; solubility [5]: soluble
CC(=O)N[C@@H](CC(C)C)C(=O)NCC(=O)N[C@@H](CCC(N)=O)C(=O)N[C@@H](CC(C)C)C(=O)N[C@@H](CCC(N)=O)C(=O)N1CCC[C@H]1C(=O)N[C@@H](CO)C(=O)N[C@@H](CC(C)C)C(=O)N[C@@H](CCC(N)=O)C(=O)N[C@H](C(=O)NCC(=O)N[C@@H](CO)C(=O)N[C@@H](CCC(=O)O)C(=O)N[C@@H](CCC(=O)O)C(=O)N[C@@H](CC(C)C)C(=O)NCC(=O)N[C@@H](CSCC(=O)N[C@@H](CCCNC(=N)N)C(=O)N[C@@H](CCCNC(=N)N)C(=O)N[C@@H](CCCNC(=N)N)C(=O)N[C@@H](CCCNC(=N)N)C(=O)N[C@@H](CCCNC(=N)N)C(=O)N[C@@H](CCCNC(=N)N)C(=O)N[C@@H](CCCNC(=N)N)C(=O)N[C@@H](CCCNC(=N)N)C(N)=O)C(N)=O)[C@@H](C)O	> 50 µM	–	35 µM	inhibition at 50 µM [8]: 35%; inhibition at 50 µM [9]: 37%
CC[C@H](C)[C@H](NC(=O)[C@H](CCCCN)NC(=O)[C@H](CC(=O)O)NC(=O)[C@H](CC(C)C)NC(=O)[C@H](C)NC(=O)[C@H](CCC(=O)O)NC(=O)[C@H](CCCCN)NC(=O)[C@@H](NC(=O)[C@H](CC(=O)O)NC(=O)[C@H](CCCCN)NC(=O)[C@@H](NC(=O)[C@H](CC(=O)O)NC(=O)[C@@H](NC(=O)[C@H](CCCNC(=N)N)NC(C)=O)[C@@H](C)CC)C(C)C)[C@@H](C)O)C(=O)N[C@@H](CCC(=O)O)C(=O)NCC(=O)N[C@@H](CSCC(N)=O)C(N)=O	17 µM	–	–	inhibition [6]: inactive
CC[C@H](C)[C@H](NC(=O)[C@H](Cc1cnc[nH]1)NC(=O)[C@H](CCCCN)NC(=O)[C@H](CC(C)C)NC(=O)[C@H](CCCCN)NC(=O)[C@H](Cc1ccc(O)cc1)NC(=O)[C@H](CCC(N)=O)NC(=O)[C@H](CCCCN)NC(=O)[C@H](CCCCN)NC(=O)CNC(=O)CNC(=O)[C@@H]1CCCN1C(=O)[C@H](CCCNC(=N)N)NC(=O)[C@H](CC(C)C)NC(C)=O)C(=O)N[C@H](C(=O)NCC(=O)N[C@@H](CSCC(=O)N[C@@H](CCCNC(=N)N)C(=O)N[C@@H](CCCNC(=N)N)C(=O)N[C@@H](CCCNC(=N)N)C(=O)N[C@@H](CCCNC(=N)N)C(=O)N[C@@H](CCCNC(=N)N)C(=O)N[C@@H](CCCNC(=N)N)C(=O)N[C@@H](CCCNC(=N)N)C(=O)N[C@@H](CCCNC(=N)N)C(N)=O)C(N)=O)C(C)C	36 µM	–	–	inhibition [10]: inactive
CC(=O)N[C@@H](CO)C(=O)N[C@@H](CCCCN)C(=O)N[C@@H](CCCCN)C(=O)N[C@@H](CCCCN)C(=O)N[C@@H](C)C(=O)N[C@@H](CCC(N)=O)C(=O)N[C@@H](CCC(N)=O)C(=O)N[C@@H](C)C(=O)N[C@@H](C)C(=O)N[C@@H](C)C(=O)N[C@@H](CC(=O)O)C(=O)N[C@H](C(=O)NCC(=O)N[C@@H](CC(N)=O)C(=O)N[C@@H](CC(N)=O)C(=O)NCC(=O)N[C@@H](CSCC(=O)N[C@@H](CCCNC(=N)N)C(=O)N[C@@H](CCCNC(=N)N)C(=O)N[C@@H](CCCNC(=N)N)C(=O)N[C@@H](CCCNC(=N)N)C(=O)N[C@@H](CCCNC(=N)N)C(=O)N[C@@H](CCCNC(=N)N)C(=O)N[C@@H](CCCNC(=N)N)C(=O)N[C@@H](CCCNC(=N)N)C(N)=O)C(N)=O)[C@@H](C)O	> 50 µM	27 µM	41 µM	inhibition at 25 µM [7]: 30%
CC[C@H](C)[C@H](NC(=O)[C@H](Cc1cnc[nH]1)NC(=O)[C@H](CCCCN)NC(=O)[C@H](CC(C)C)NC(=O)[C@H](CCCCN)NC(=O)[C@H](Cc1ccc(O)cc1)NC(=O)[C@H](CCC(N)=O)NC(=O)[C@H](CCC(=O)O)NC(=O)[C@H](Cc1c[nH]c2ccccc12)NC(=O)[C@H](CCCCN)NC(=O)[C@H](CC(=O)O)NC(=O)[C@H](CC(C)C)NC(=O)[C@H](CCC(=O)O)NC(=O)CNC(C)=O)C(=O)N[C@H](C(=O)NCC(=O)N[C@@H](CSCC(=O)N[C@@H](CCCNC(=N)N)C(=O)N[C@@H](CCCNC(=N)N)C(=O)N[C@@H](CCCNC(=N)N)C(=O)N[C@@H](CCCNC(=N)N)C(=O)N[C@@H](CCCNC(=N)N)C(=O)N[C@@H](CCCNC(=N)N)C(=O)N[C@@H](CCCNC(=N)N)C(=O)N[C@@H](CCCNC(=N)N)C(N)=O)C(N)=O)C(C)C	36 µM	–	–	inhibition [10]: inactive
CC[C@H](C)[C@H](NC(=O)[C@H](CCCCN)NC(=O)[C@H](CC(=O)O)NC(=O)[C@H](CC(C)C)NC(=O)[C@H](C)NC(=O)[C@H](CCC(=O)O)NC(=O)[C@H](CCCCN)NC(=O)[C@@H](NC(=O)[C@H](CC(=O)O)NC(=O)[C@H](CCCCN)NC(=O)[C@@H](NC(=O)[C@H](CC(=O)O)NC(=O)[C@@H](NC(=O)[C@H](CCCNC(=N)N)NC(C)=O)[C@@H](C)CC)C(C)C)[C@@H](C)O)C(=O)N[C@@H](CCC(=O)O)C(=O)NCC(=O)N[C@@H](CSCC(=O)N[C@@H](CCCNC(=N)N)C(=O)N[C@@H](CCCNC(=N)N)C(=O)N[C@@H](CCCNC(=N)N)C(=O)N[C@@H](CCCNC(=N)N)C(=O)N[C@@H](CCCNC(=N)N)C(=O)N[C@@H](CCCNC(=N)N)C(=O)N[C@@H](CCCNC(=N)N)C(=O)N[C@@H](CCCNC(=N)N)C(N)=O)C(N)=O	> 50 µM	27 µM	43 µM	inhibition at 50 µM [9]: 42%

Reference: ChEMBL document CHEMBL1944566, “Conjugation of cell-penetrating peptides leads to identification of anti-HIV peptides from matrix proteins” (Bioorg Med Chem, 2012)
